Experimental data reported in ChEMBL document CHEMBL1201862, “PubChem BioAssay data set” (2004).
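Growth conditions: 96-well plates. Treatment: test compound, 48 hours, 5 concentrations. Analysis: linear interpolation between bracketing concentrations; unreached endpoints set to highest concentration. The concentration for 50% growth inhibition is given as GI50.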 Calls of active or inactive are those of the source. Cut-off read from the data, not from the text of the source: active = GI50 up to about 1.1 µM and inactive = higher.

Key:
Experiment in all cases: growth of human tumour cells (NCI), 48 h
CCRF-CEM = tested on: CCRF-CEM
U-251 = tested on: U-251
RXF 393 = tested on: RXF 393
COLO 205 = tested on: COLO 205
SF-295 = tested on: SF-295
HOP-62 = tested on: HOP-62
UACC-62 = tested on: UACC-62
NCI-H226 = tested on: NCI-H226
PC-3 = tested on: PC-3
SK-MEL-5 = tested on: SK-MEL-5
UACC-257 = tested on: UACC-257
SW-620 = tested on: SW-620
OVCAR-8 = tested on: OVCAR-8
UO-31 = tested on: UO-31
SF-539 = tested on: SF-539
MCF7 = tested on: MCF7
NCI-H460 = tested on: NCI-H460
IGROV-1 = tested on: IGROV-1
CAKI-1 = tested on: CAKI-1
OVCAR-4 = tested on: OVCAR-4

Measured: GI50

CN(C)CC1CCCCCCCCCC(CN(C)C)C1=O (stereo not given)
inactive: CCRF-CEM 12 µM | U-251 > 37.5 µM | RXF 393 8.77 µM | COLO 205 > 38.1 µM | SF-295 > 42.1 µM | HOP-62 > 44 µM | UACC-62 22 µM | NCI-H226 > 43 µM | PC-3 4.41 µM | SK-MEL-5 17.3 µM | UACC-257 23.1 µM | SW-620 > 21.2 µM | OVCAR-8 > 32.3 µM | UO-31 > 38.7 µM | SF-539 > 27.7 µM | MCF7 5.07 µM | NCI-H460 > 36.8 µM | IGROV-1 > 39.9 µM | CAKI-1 > 35.4 µM

C/C(Cc1ccc2c(c1)OCO2)=N\N=c1\sc2ccccc2n1C
inactive: CCRF-CEM 92.5 µM | U-251 > 100 µM | RXF 393 > 100 µM | COLO 205 > 100 µM | SF-295 > 100 µM | HOP-62 > 100 µM | UACC-62 > 100 µM | NCI-H226 > 100 µM | PC-3 97.1 µM | SK-MEL-5 45.2 µM | UACC-257 > 100 µM | SW-620 > 100 µM | OVCAR-8 > 100 µM | UO-31 > 100 µM | SF-539 > 100 µM | MCF7 72.9 µM | IGROV-1 > 100 µM | OVCAR-4 > 100 µM | CAKI-1 > 100 µM

Fc1cc(-c2cc(-c3ccccc3)no2)c(Cl)cc1Cl
inactive: CCRF-CEM 10.7 µM | U-251 10.3 µM | RXF 393 7.11 µM | COLO 205 11.3 µM | SF-295 22.5 µM | HOP-62 22.7 µM | UACC-62 43.2 µM | PC-3 13.7 µM | SK-MEL-5 16.4 µM | UACC-257 > 56.8 µM | SW-620 20.9 µM | OVCAR-8 > 26.8 µM | UO-31 > 38.5 µM | SF-539 > 12.4 µM | MCF7 4.25 µM | NCI-H460 16.7 µM | IGROV-1 12.7 µM | OVCAR-4 22.9 µM | CAKI-1 34.5 µM

Cc1cn(C2CC(O)C(Cn3nncc3Cn3cnc4c(N)ncnc43)O2)c(=O)[nH]c1=O (stereo not given)
inactive: CCRF-CEM > 100 µM | U-251 > 100 µM | RXF 393 > 100 µM | COLO 205 > 100 µM | SF-295 > 100 µM | HOP-62 > 100 µM | UACC-62 > 100 µM | NCI-H226 > 100 µM | PC-3 > 100 µM | SK-MEL-5 > 100 µM | UACC-257 > 100 µM | SW-620 > 100 µM | OVCAR-8 26.4 µM | UO-31 > 100 µM | SF-539 > 100 µM | MCF7 > 100 µM | IGROV-1 > 100 µM | OVCAR-4 > 100 µM | CAKI-1 > 100 µM

Cc1cc2ncn(C3CCCO3)c2cc1C (stereo not given)
inactive: CCRF-CEM > 100 µM | U-251 > 100 µM | RXF 393 > 100 µM | COLO 205 > 100 µM | SF-295 > 100 µM | HOP-62 > 100 µM | UACC-62 > 100 µM | NCI-H226 > 100 µM | PC-3 > 100 µM | SK-MEL-5 > 100 µM | UACC-257 > 100 µM | SW-620 > 100 µM | OVCAR-8 > 100 µM | UO-31 28.3 µM | SF-539 > 100 µM | MCF7 > 100 µM | IGROV-1 > 100 µM | OVCAR-4 > 100 µM | CAKI-1 > 100 µM

COc1ccc(C2(C3c4cc(OC)c(OC)cc4CCN3C)SCCCS2)cc1O (stereo not given)
inactive: CCRF-CEM > 100 µM | U-251 > 100 µM | RXF 393 > 100 µM | COLO 205 > 100 µM | SF-295 71.8 µM | HOP-62 > 100 µM | UACC-62 > 100 µM | PC-3 47.1 µM | SK-MEL-5 > 100 µM | UACC-257 > 100 µM | SW-620 > 100 µM | OVCAR-8 > 100 µM | UO-31 > 100 µM | SF-539 > 100 µM | MCF7 > 100 µM | NCI-H460 > 100 µM | IGROV-1 > 100 µM | OVCAR-4 > 100 µM | CAKI-1 > 100 µM

O=C1/C(=C\c2cccc(Oc3ccccc3)c2)S(=O)(=O)C(c2ccccc2)N1c1cc(Cl)ccc1Cl (stereo not given)
inactive: CCRF-CEM 3.05 µM | U-251 16.5 µM | RXF 393 15.5 µM | COLO 205 22.2 µM | SF-295 14.2 µM | HOP-62 19.4 µM | UACC-62 15.2 µM | PC-3 32.4 µM | SK-MEL-5 17 µM | UACC-257 19.9 µM | SW-620 3.83 µM | OVCAR-8 5.06 µM | UO-31 16.8 µM | SF-539 5.43 µM | MCF7 4.13 µM | NCI-H460 28.1 µM | IGROV-1 15.6 µM | OVCAR-4 23.1 µM | CAKI-1 24.7 µM

Nc1nc(Cl)cc(NCCO)n1
inactive: U-251 > 100 µM | RXF 393 > 100 µM | COLO 205 > 100 µM | SF-295 > 100 µM | HOP-62 > 100 µM | UACC-62 > 100 µM | NCI-H226 > 100 µM | PC-3 > 100 µM | SK-MEL-5 > 100 µM | UACC-257 > 100 µM | SW-620 > 100 µM | OVCAR-8 > 100 µM | UO-31 > 100 µM | SF-539 > 100 µM | MCF7 > 100 µM | NCI-H460 > 100 µM | IGROV-1 > 100 µM | OVCAR-4 > 100 µM | CAKI-1 > 100 µM

C[C@H](CCC(=O)O)[C@H]1CC[C@H]2[C@@H]3[C@@H](O)C[C@@H]4C[C@H](O)CC[C@]4(C)[C@H]3C[C@H](O)[C@]12C
inactive: CCRF-CEM > 100 µM | U-251 > 100 µM | RXF 393 > 100 µM | COLO 205 > 100 µM | HOP-62 > 100 µM | UACC-62 > 100 µM | NCI-H226 > 100 µM | PC-3 > 100 µM | UACC-257 > 100 µM | SW-620 > 100 µM | OVCAR-8 > 100 µM | SF-539 > 100 µM | MCF7 > 100 µM | NCI-H460 > 100 µM | IGROV-1 > 100 µM | OVCAR-4 > 100 µM | CAKI-1 > 100 µM

Cc1cn(C2CC(n3cc(Cn4cc(I)c(=O)[nH]c4=O)nn3)C(CO)O2)c(=O)[nH]c1=O (stereo not given)
inactive: CCRF-CEM > 100 µM | U-251 > 100 µM | RXF 393 > 100 µM | COLO 205 > 100 µM | SF-295 > 100 µM | HOP-62 > 100 µM | UACC-62 > 100 µM | NCI-H226 > 100 µM | PC-3 > 100 µM | SK-MEL-5 > 100 µM | UACC-257 > 100 µM | SW-620 > 100 µM | OVCAR-8 > 100 µM | UO-31 > 10 µM | SF-539 > 100 µM | MCF7 > 100 µM | OVCAR-4 > 100 µM | CAKI-1 > 100 µM

CCOP(=O)(OCC)C(c1ccc(F)cc1)N(C(=O)NC(F)(F)F)c1ccc(F)cc1 (stereo not given)
inactive: CCRF-CEM > 100 µM | U-251 > 100 µM | RXF 393 > 100 µM | COLO 205 > 100 µM | SF-295 > 100 µM | HOP-62 > 100 µM | NCI-H226 > 100 µM | PC-3 > 100 µM | SK-MEL-5 > 100 µM | UACC-257 > 100 µM | SW-620 > 100 µM | OVCAR-8 > 100 µM | UO-31 > 100 µM | SF-539 > 100 µM | MCF7 > 100 µM | NCI-H460 > 100 µM | IGROV-1 > 100 µM | CAKI-1 > 100 µM
